From ChEMBL document CHEMBL5537180, “Discovery of Novel Aminobutanoic Acid-Based ASCT2 Inhibitors for the Treatment of Non-Small-Cell Lung Cancer” (J Med Chem, 2024)
Active and inactive are the calls of the source. The calls are words filed in the database; no cut-off is given here.

Experiments:
[1] = test system: A549; test: Induction of autophagy in human A549 cells assessed as downregulation of p62 level at 5 to 10 uM measured after 24 hrs by Western blot analysis; assay type: functional, cell-based; details: dose 5-10 µM
[2] = test system: A549; test: Inhibition of AKT/mTORC signalling in human A549 cells assessed as decrease in p70S6K level at 5 to 10 uM measured after 24 hrs by Western blot analysis; assay type: cell-based; details: dose 5-10 µM
[3] = test system: NSCLC; test: Antiproliferative activity against human NSCLC cells cultured as 2862 organoids assessed as cell viability incubated for 96 hrs by Celltiter-glo viability assay; assay type: functional, cell-based
[4] = test system: A549; test: Induction of apoptosis in human A549 cells assessed as late apoptotic cells at 10 uM measured after 24 hrs by annexin-V/PI staining based flow cytometry analysis (reference value: 1.34%); assay type: functional
[5] = test system: A549; test: Induction of apoptosis in human A549 cells assessed as early apoptotic cells at 5 uM measured after 24 hrs by annexin-V/PI staining based flow cytometry analysis (reference value: 1.56%); assay type: functional
[6] = Bioavailability in Sprague-Dawley rat at 10 mg/kg, ip incubated for 24 hrs by LC-MS/MS analysis; assay type: ADME, organism-based; details: in vivo
[7] = test system: A549; test: Induction of apoptosis in human A549 cells assessed as late apoptotic cells at 5 uM measured after 24 hrs by annexin-V/PI staining based flow cytometry analysis (reference value: 1.34%); assay type: functional
[8] = test system: A549; test: Induction of apoptosis in human A549 cells assessed as viable cells at 10 uM measured after 24 hrs by annexin-V/PI staining based flow cytometry analysis (reference value: 97.0%); assay type: functional; details: read-out: Activity
[9] = test system: A549; test: Induction of apoptosis in human A549 cells assessed as necrotic cells at 10 uM measured after 24 hrs by annexin-V/PI staining based flow cytometry analysis (reference value: 0.13%); assay type: functional
[10] = biological target: T1, Sodium-coupled neutral amino acid symporter 1 (Homo sapiens) (UniProt Q9H2H9); test: Inhibition of SNAT1 (unknown origin) overexpressed in human A549 cells assessed as reduction in [13C]-Gln uptake preincubated for 5 mins followed by substrate addition and measured after 15 mins; assay type: cell-based; details: time 20.0 min
T1 sequence (whole entry): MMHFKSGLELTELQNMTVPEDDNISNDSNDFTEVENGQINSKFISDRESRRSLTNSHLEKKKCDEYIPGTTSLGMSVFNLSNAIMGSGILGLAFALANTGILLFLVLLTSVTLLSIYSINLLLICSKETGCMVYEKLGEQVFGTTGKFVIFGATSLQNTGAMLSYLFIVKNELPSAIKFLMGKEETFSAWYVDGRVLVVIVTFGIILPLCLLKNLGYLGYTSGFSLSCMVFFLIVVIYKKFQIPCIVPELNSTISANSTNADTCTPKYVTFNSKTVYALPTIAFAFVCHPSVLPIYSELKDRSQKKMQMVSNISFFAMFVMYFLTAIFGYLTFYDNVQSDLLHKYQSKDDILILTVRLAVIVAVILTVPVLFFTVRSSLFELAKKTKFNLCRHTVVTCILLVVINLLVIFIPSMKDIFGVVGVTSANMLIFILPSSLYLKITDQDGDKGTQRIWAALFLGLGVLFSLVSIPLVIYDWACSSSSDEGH

[11] = test system: A549; test: Induction of apoptosis in human A549 cells assessed as necrotic cells at 5 uM measured after 24 hrs by annexin-V/PI staining based flow cytometry analysis (reference value: 0.13%); assay type: functional
[12] = test system: A549; test: Induction of apoptosis in human A549 cells assessed as early apoptotic cells at 10 uM measured after 24 hrs by annexin-V/PI staining based flow cytometry analysis (reference value: 1.56%); assay type: functional
[13] = test system: A549; test: Induction of apoptosis in human A549 cells assessed as viable cells at 5 uM measured after 24 hrs by annexin-V/PI staining based flow cytometry analysis (reference value: 97.0%); assay type: functional; details: read-out: Activity

For `CC(C)(C)c1ccc(OCC#Cc2ccccc2)c(CN(CC[C@H](N)C(=O)O)Cc2cc(C(C)(C)C)ccc2OCC#Cc2ccccc2)c1`, which Activity [1] is on record?
Its Activity is “Active”.

What about the inhibition [2] of the same compound?
The inhibition was “Active”.

What about the IC50 [3] of the same compound?
The IC50 was 2.85 µM.

With `N[C@@H](CCN(Cc1ccccc1OCC#Cc1ccc(Cl)cc1)Cc1ccccc1OCC#Cc1ccc(Cl)cc1)C(=O)O` as the compound, how does the Activity [4] read?
The Activity was 7.29%.

And the Activity [1]?
The Activity was “Active”.

What about the Activity [5] of the same compound?
Its Activity is 2.47%.

And the inhibition [2]?
The inhibition was “Active”.

And the bioavailability [6]?
The bioavailability was 77%.

And the Activity [7]?
The Activity was 6.44%.

What about the viability at 10 µM [8] of the same compound?
The viability at 10 µM was 84.4%.

And the Activity [9]?
The Activity was 1.4%.

And the inhibition [10]?
The inhibition was “Active”.

And the Activity [11]?
The Activity was 0.79%.

And the Activity [12]?
The Activity was 6.93%.

And the viability at 5 µM [13]?
The viability at 5 µM was 90.3%.

What about the IC50 [3] of the same compound?
The IC50 was 5.21 µM.
